The values below come from US20040209318A1, “Reagents and methods for the detection and quantification of vancomycin in bilogical fluids” (priority 1995, published 2004).

The test system of data set [1] is anti-vancomycin Fab fragment. As to conditions: substance immobilized on CM-5 sensor chip.
Experimental: (§1) Briefly, a continuous flow of HBS buffer at 10 μL/minute was initiated over the biosensor surface. The carboxymethylated dextran matrix on the sensor surface was activated by a 3.5 minute injection of a solution of 0.05 M HNS and 0.2 M EDAC. […] Blank surfaces were generated under identical conditions omitting the ligand immobilization step.
Initial attempts to generate a biosensor surface involved immobilization of vancomycin to the activated carboxymethyl dextran surface of a CM-5 sensor chip through the primary amine of the vancosamine sugar moiety.
The target of data set [2] is anti-vancomycin Fab fragment. Briefly: BIAcore solution competition, equilibrium dissociation constant. It is filed as binding, mouse. How it is done: Biosensor surfaces were regenerated after each injection with successive 1 minute pulses of 6 M, 6M, and 1.5 M guanidine hydrochloride. Initial rates of binding of anti-vancomycin Fab fragment to the biosensor surface were measured over a 15 second window beginning 20 seconds postinjection. Data was evaluated by non-linear regression analysis using the solution affinity model built into BIAevaluation 3.0 software (BIAcore, Inc).
The binding affinities of several vancomycin analogs and tracers for anti-vancomycin Fab fragment were determined from solution competition experiments carried out on a BIAcore 2000. Initially, known concentrations of anti-vancomycin Fab fragment (0-22 nM) were injected over the aminoalkyl vancomycin biosensor surface. The initial rate of binding for each anti-vancomycin Fab fragment concentration was obtained by averaging the observed binding rate over a […] window beginning 20 seconds post injection. Data from the first 20 seconds of each sensorgram were omitted due to sample dispersion effects at the start of injections. A plot of initial binding rate versus concentration of anti-vancomycin Fab fragment was fit using a 4-parameter logistic (general model in BIAevaluation 3.0) providing a standard curve. […] A fixed concentration of anti-vancomycin Fab fragment (20 nM) was then mixed with twelve concentrations of each vancomycin analog or tracer and allowed to reach equilibrium. The equilibrium mixtures were individually injected over the aminoalkyl vancomycin biosensor surface, and the concentration of free anti-vancomycin Fab fragment remaining was quantitated by determination of the initial rate of binding to the biosensor surface as described above. A plot of free anti-vancomycin Fab fragment versus total concentration of added analog or tracer provides a competition curve. […] The data points represent the experimentally determined concentrations of free anti-vancomycin Fab fragment in equilibrium solutions at a given concentration of soluble analog or tracer. The curves represent the best nonlinear fit of the data using equation 1 (solution affinity model in BIAevaluation software) below: [formula]
where Fabτ is the concentration of free anti-vancomycin Fab fragment in equilibrium solutions, Fabτ is the total concentration of anti-vancomycin Fab fragment in solution (20 nM), A is the total concentration of added vancomycin analog or tracer, and KD is the equilibrium dissociation constant for the binding of the vancomycin analog or tracer to anti-vancomycin Fab fragment in solution.
On the technique in general: Surface plasmon resonance follows binding to a sensor surface in real time, without labels.

For data set [3] the following is noted: cited from earlier work.
The conditions of data set [4]: 0.5 μM.
Experimental: as §1
For these studies, an (N^ε-acetyl)KDADA tripeptide containing an aminocaproate linker from the amino terminus was immobilized via amine coupling to an activated carboxymethyl dextran surface of a CM-5 sensor chip.
Where [5] appears, read: in solution, 20 nM Fab fragment, read-out: Equilibrium Dissociation Constant (KD).

Read-outs that look alike come from different tables or passages of the source.

For the molecule `CN[C@H](CC(C)C)C(=O)N[C@H]1C(=O)N[C@@H](CC(N)=O)C(=O)N[C@H]2C(=O)N[C@H]3C(=O)N[C@H](C(=O)N[C@H](C(=O)O)c4cc(O)cc(O)c4-c4cc3ccc4O)[C@H](O)c3ccc(c(Cl)c3)Oc3cc2cc(c3O[C@@H]2O[C@H](CO)[C@@H](O)[C@H](O)[C@H]2O[C@H]2C[C@](C)(N)[C@H](O)[C@H](C)O2)Oc2ccc(cc2Cl)[C@H]1O` [vancomycin (1), vancomycin], in data set [1], the “binding capacity (Rumax) of biosensor surface” value is listed as “minimal binding capacity”. Further, the Kd was no more than 200 pM in data set [2] (setting [5]) and no more than 200 pM in data set [2] (in the presence of (Nα,Nε-diacetyl)KDADA tripeptide (500 μM), read-out: KD). In addition, the half life in data set [3] (normal patients) is 5 to 11 h; in data set [3] (patients with renal insufficiency), 48 to 120 h. Also, in data set [4], the “instrumental response at equilibrium” value was “approximately 50 Rus”.

With “N-acetylvancosaminylvancomycin [compound 7]”, in data set [2] (setting [5]), the Kd is no more than 200 pM.

A word on the Kd: it is a measure of binding affinity in units of concentration.
